According to ChEMBL document CHEMBL4385613, “Discovery of Conformational Control Inhibitors Switching off the Activated c-KIT and Targeting a Broad Range of Clinically Relevant c-KIT Mutants” (J Med Chem, 2019):
Activity calls are given as the source filed them. No cut-off for these calls is given here.

Legend:
[1] = tested on: A549; experiment: Antiproliferative activity against human A549 assessed as reduction in cell viability after 72 hrs by MTS assay; format: functional; conditions: A549, 72 h
[2] = target: Mast/stem cell growth factor receptor Kit (Homo sapiens, UniProt P10721, D816V/V560G); experiment: Inhibition of human c-KIT A loop exon 11/17 V560G/D816V double mutant using poly (Glu,Tyr) 4:1 as substrate in presence of 33P-gamma-ATP by hotspot kinase assay
[3] = target: Mast/stem cell growth factor receptor Kit (Homo sapiens, UniProt P10721, V559D/V654A); experiment: Inhibition of human c-KIT […] V559D/V654A double mutant using poly (Glu,Tyr) 4:1 as substrate in presence of 33P-gamma-ATP by hotspot kinase assay
[4] = tested on: Mast/stem cell growth factor receptor Kit (Homo sapiens), P10721 [D820Y]; conditions: at 10 nM
Description: Inhibition of human c-KIT A loop exon 17 D820Y single mutant at 10 nM using poly (Glu,Tyr) 4:1 as substrate in presence of 33P-gamma-ATP by hotspot kinase assay relative to control

[5] = Plasma clearance in ICR mouse at 2 mg/kg, iv administered as single dose measured up to 24 hrs by LC-MS/MS analysis; format: ADME, organism-based
[6] = tested on: Mast/stem cell growth factor receptor Kit (Homo sapiens), P10721 [V560G,N822K]; experiment: Inhibition of human c-KIT A loop exon 11/17 V560G/N822K double mutant at 10 nM using poly (Glu,Tyr) 4:1 as substrate in presence of 33P-gamma-ATP by hotspot kinase assay relative to control
[7] = tested on: Mast/stem cell growth factor receptor Kit (Homo sapiens), P10721 [V560G,N822K]; experiment: Inhibition of human c-KIT A loop exon 11/17 V560G/N822K double mutant at 100 nM using poly (Glu,Tyr) 4:1 as substrate in presence of 33P-gamma-ATP by hotspot kinase assay relative to control
[8] = target: Mast/stem cell growth factor receptor Kit (Homo sapiens, UniProt P10721, K642E); experiment: Inhibition of human c-KIT ATP binding domain exon 13 K642E single mutant using poly (Glu,Tyr) 4:1 as substrate in presence of 33P-gamma-ATP by hotspot kinase assay
[9] = tested on: Mast/stem cell growth factor receptor Kit (Homo sapiens), P10721 [V560G]; experiment: Inhibition of human c-KIT JM domain exon 11 V560G single mutant at 10 nM using poly (Glu,Tyr) 4:1 as substrate in presence of 33P-gamma-ATP by hotspot kinase assay relative to control
[10] = tested on: Mast/stem cell growth factor receptor Kit (Homo sapiens), P10721 [UNDEFINED MUTATION]; experiment: Inhibition of c-KIT V560-L576 deletion/V654A double mutant phosphorylation in human GIST430 cells at 10 to 100 nM measured after 24 to 72 hrs by Western blot analysis; format: cell-based
[11] = tested on: Mast/stem cell growth factor receptor Kit (Homo sapiens), P10721 [Y823D]; conditions: at 100 nM
Description: Inhibition of human c-KIT A loop exon 17 Y823D single mutant at 100 nM using poly (Glu,Tyr) 4:1 as substrate in presence of 33P-gamma-ATP by hotspot kinase assay relative to control

[12] = tested on: Mast/stem cell growth factor receptor Kit (Homo sapiens), P10721 [V559D,V654A]; experiment: Inhibition of human c-KIT […] V559D/V654A double mutant at 100 nM using poly (Glu,Tyr) 4:1 as substrate in presence of 33P-gamma-ATP by hotspot kinase assay relative to control
[13] = tested on: Mast/stem cell growth factor receptor Kit (Homo sapiens), P10721 [V559D,V654A]; experiment: Inhibition of human c-KIT […] V559D/V654A double mutant at 10 nM using poly (Glu,Tyr) 4:1 as substrate in presence of 33P-gamma-ATP by hotspot kinase assay relative to control
[14] = tested on: Mast/stem cell growth factor receptor Kit (Homo sapiens), P10721 [UNDEFINED MUTATION]; experiment: Inhibition of c-KIT V560-L576 deletion/V654A double mutant phosphorylation in human GIST430 cells assessed as decrease in phosphorylation of MEK at 10 to 100 nM measured after 24 to 72 hrs by Western blot analysis; format: cell-based
[15] = target: Mast/stem cell growth factor receptor Kit (Homo sapiens, UniProt P10721, Y823D); experiment: Inhibition of human c-KIT A loop exon 17 Y823D single mutant using poly (Glu,Tyr) 4:1 as substrate in presence of 33P-gamma-ATP by hotspot kinase assay
[16] = tested on: Mast/stem cell growth factor receptor Kit (Homo sapiens), P10721 [D816V]; conditions: at 100 nM
Description: Inhibition of human c-KIT A loop exon 17 D816V single mutant at 100 nM using poly (Glu,Tyr) 4:1 as substrate in presence of 33P-gamma-ATP by hotspot kinase assay relative to control

[17] = tested on: GIST430; experiment: Antitumor activity against human GIST430 cells harboring c-KIT exon 11 primary in-frame V560-L576 deletion mutant and exon 13 heterozygous secondary missense V654A mutant xenografted in NOD-SCID mouse assessed as tumor growth inhibition at 25 mg/kg, po administered for 2 weeks with 2 days rest after day 5 and measured thrice per week up to 21 days during compound dosing; format: functional, organism-based
[18] = tested on: GIST430; experiment: Antitumor activity against human GIST430 cells harboring c-KIT exon 11 primary in-frame V560-L576 deletion mutant and exon 13 heterozygous secondary missense V654A mutant xenografted in NOD-SCID mouse assessed as reduction in tumor size at 25, po administered for 2 weeks with 2 days rest after day 5 and measured thrice per week up to 14 days during compound dosing relative to control; format: functional; set-up: scale not given: the % may be the effect or the level left
[19] = tested on: Mus musculus; experiment: Decrease in c-KIT phosphorylation in NOD-SCID mouse xenografted with human GIST430 cells harboring c-KIT exon 11 primary in-frame V560-L576 deletion mutant and exon 13 heterozygous secondary missense V654A mutant at 20 mg/kg, po measured after 8 hrs by immunoblotting analysis relative to control; format: functional
[20] = tested on: Mast/stem cell growth factor receptor Kit (Homo sapiens), P10721 [D820E]; conditions: at 100 nM
Description: Inhibition of human c-KIT A loop exon 17 D820E single mutant at 100 nM using poly (Glu,Tyr) 4:1 as substrate in presence of 33P-gamma-ATP by hotspot kinase assay relative to control

[21] = Antiproliferative activity against human GIST62 cells assessed as reduction in cell viability by methylene blue staining based assay; format: functional
[22] = target: T1, Mast/stem cell growth factor receptor Kit (Homo sapiens, UniProt P10721); experiment: Inhibition of recombinant human N-terminal 6x-His-tagged c-KIT (547 to 935 residues)/(694 to 753 residues deletion) expressed in baculovirus infected Sf9 insect cells assessed as decrease in poly (Glu,Tyr) 4:1 phosphorylation measured after 150 mins in presence of ATP by ADP-glo based luminescence assay
[23] = AUC in ICR mouse at 10 mg/kg, po administered as single dose measured up to 24 hrs by LC-MS/MS analysis; format: ADME, organism-based; set-up: dose 10 mg/kg, time < 24 hr, route oral; conditions: in vivo
[24] = tested on: GISTT1; experiment: Antiproliferative activity against human GISTT1 cells harboring heterozygous V560-Y578 deletion mutant assessed as reduction in cell viability by MTS assay; format: functional
[25] = target: T1, Mast/stem cell growth factor receptor Kit; experiment: Inhibition of ATP-activated recombinant human N-terminal 6x-His-tagged c-KIT (547 to 935 residues)/(694 to 753 residues deletion) expressed in baculovirus infected Sf9 insect cells assessed as decrease in poly (Glu,Tyr) 4:1 phosphorylation incubated for 30 mins followed by ATP addition and measured after 30 mins by Kinase Glo based luminescence assay
[26] = tested on: Mast/stem cell growth factor receptor Kit (Homo sapiens), P10721 [V560G,D816V]; experiment: Inhibition of human c-KIT A loop exon 11/17 V560G/D816V double mutant at 100 nM using poly (Glu,Tyr) 4:1 as substrate in presence of 33P-gamma-ATP by hotspot kinase assay relative to control
Sequence of Mast/stem cell growth factor receptor Kit (Homo sapiens), P10721 [V560G,D816V] (P10721 whole entry V560G/D816V): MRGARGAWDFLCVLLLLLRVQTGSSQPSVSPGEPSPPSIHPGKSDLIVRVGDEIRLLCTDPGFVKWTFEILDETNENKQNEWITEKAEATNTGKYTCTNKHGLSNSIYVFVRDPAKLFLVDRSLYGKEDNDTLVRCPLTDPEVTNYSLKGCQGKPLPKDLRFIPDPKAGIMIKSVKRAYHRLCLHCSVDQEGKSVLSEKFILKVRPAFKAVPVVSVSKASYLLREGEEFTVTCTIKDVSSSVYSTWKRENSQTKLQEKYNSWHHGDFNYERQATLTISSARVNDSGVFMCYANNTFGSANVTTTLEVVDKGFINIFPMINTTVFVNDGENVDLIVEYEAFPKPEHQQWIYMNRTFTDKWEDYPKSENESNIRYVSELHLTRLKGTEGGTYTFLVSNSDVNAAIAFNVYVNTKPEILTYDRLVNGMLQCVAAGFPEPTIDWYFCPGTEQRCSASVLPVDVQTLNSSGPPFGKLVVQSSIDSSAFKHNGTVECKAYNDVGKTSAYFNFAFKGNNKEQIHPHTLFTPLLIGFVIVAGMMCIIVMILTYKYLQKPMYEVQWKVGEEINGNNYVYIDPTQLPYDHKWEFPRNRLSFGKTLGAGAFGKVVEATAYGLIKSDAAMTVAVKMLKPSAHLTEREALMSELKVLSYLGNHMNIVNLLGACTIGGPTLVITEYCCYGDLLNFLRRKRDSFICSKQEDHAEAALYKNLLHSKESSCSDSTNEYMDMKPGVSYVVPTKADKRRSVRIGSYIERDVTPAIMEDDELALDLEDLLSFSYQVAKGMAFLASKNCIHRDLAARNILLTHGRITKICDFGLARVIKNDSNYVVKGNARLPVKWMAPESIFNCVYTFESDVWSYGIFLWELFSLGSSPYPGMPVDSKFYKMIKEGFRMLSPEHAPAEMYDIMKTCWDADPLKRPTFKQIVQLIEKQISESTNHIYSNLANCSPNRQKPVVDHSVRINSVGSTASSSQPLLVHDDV

Sequence of Mast/stem cell growth factor receptor Kit (Homo sapiens), P10721 [V559D,V654A] (P10721 whole entry V559D/V654A): as the sequence (P10721 whole entry V560G/D816V) above, with V559D, G560V, V654A, V816D counted along it
Sequence of Mast/stem cell growth factor receptor Kit (Homo sapiens), P10721 [V560G,N822K] (P10721 whole entry V560G/N822K, the tested form may be a part): as the sequence (P10721 whole entry V560G/D816V) above, with V816D, N822K counted along it
Sequence of Mast/stem cell growth factor receptor Kit (Homo sapiens), P10721 [UNDEFINED MUTATION] (P10721 whole entry, looked up, stated change not applied): as the sequence (P10721 whole entry V560G/D816V) above, with G560V, V816D counted along it
Sequence of Mast/stem cell growth factor receptor Kit (Homo sapiens), P10721 [D820E] (P10721 whole entry D820E): as the sequence (P10721 whole entry V560G/D816V) above, with G560V, V816D, D820E counted along it
Sequence of Mast/stem cell growth factor receptor Kit (Homo sapiens, UniProt P10721, K642E) (P10721 26-976 K642E limits assumed): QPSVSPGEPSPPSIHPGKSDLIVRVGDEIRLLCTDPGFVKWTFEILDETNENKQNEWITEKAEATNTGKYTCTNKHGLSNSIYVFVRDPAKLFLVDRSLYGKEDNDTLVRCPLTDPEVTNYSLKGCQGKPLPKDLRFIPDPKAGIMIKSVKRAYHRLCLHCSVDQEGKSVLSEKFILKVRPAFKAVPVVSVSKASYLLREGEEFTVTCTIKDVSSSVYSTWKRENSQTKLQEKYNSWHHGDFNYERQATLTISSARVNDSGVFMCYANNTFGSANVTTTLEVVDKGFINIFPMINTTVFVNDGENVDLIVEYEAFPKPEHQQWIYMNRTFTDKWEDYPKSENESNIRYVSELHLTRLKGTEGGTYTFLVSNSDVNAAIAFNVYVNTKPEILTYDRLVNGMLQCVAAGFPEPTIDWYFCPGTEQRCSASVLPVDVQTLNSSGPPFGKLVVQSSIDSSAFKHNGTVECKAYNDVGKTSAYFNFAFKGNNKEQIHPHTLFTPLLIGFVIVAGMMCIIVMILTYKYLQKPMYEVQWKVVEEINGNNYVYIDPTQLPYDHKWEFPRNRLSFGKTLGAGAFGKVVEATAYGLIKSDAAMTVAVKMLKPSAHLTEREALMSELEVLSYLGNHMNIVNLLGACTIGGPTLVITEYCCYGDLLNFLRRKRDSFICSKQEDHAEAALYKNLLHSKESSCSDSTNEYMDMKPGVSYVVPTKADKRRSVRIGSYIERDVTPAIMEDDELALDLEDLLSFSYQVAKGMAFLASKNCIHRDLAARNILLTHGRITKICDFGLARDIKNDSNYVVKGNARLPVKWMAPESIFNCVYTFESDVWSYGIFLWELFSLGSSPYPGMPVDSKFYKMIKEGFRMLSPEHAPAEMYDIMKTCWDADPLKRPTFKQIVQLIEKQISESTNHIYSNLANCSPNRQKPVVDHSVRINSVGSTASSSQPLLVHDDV
Sequence of Mast/stem cell growth factor receptor Kit (Homo sapiens), P10721 [Y823D] (P10721 whole entry Y823D): as the sequence (P10721 whole entry V560G/D816V) above, with G560V, V816D, Y823D counted along it
Sequence of Mast/stem cell growth factor receptor Kit (Homo sapiens), P10721 [V560G] (P10721 whole entry V560G, the tested form may be a part): as the sequence (P10721 whole entry V560G/D816V) above, with V816D counted along it
Sequence of Mast/stem cell growth factor receptor Kit (Homo sapiens), P10721 [D816V] (P10721 whole entry D816V): as the sequence (P10721 whole entry V560G/D816V) above, with G560V counted along it
Sequence of Mast/stem cell growth factor receptor Kit (Homo sapiens, UniProt P10721, Y823D) (P10721 26-976 Y823D limits assumed): as the sequence (P10721 26-976 K642E limits assumed) above, with E617K, Y798D counted along it
Sequence of Mast/stem cell growth factor receptor Kit (Homo sapiens), P10721 [D820Y] (P10721 whole entry D820Y): as the sequence (P10721 whole entry V560G/D816V) above, with G560V, V816D, D820Y counted along it
Sequence of Mast/stem cell growth factor receptor Kit (Homo sapiens, UniProt P10721, V559D/V654A) (P10721 26-976 V559D/V654A limits assumed): as the sequence (P10721 26-976 K642E limits assumed) above, with V534D, E617K, V629A counted along it
Sequence of Mast/stem cell growth factor receptor Kit (Homo sapiens, UniProt P10721, D816V/V560G) (P10721 26-976 V560G/D816V limits assumed): as the sequence (P10721 26-976 K642E limits assumed) above, with V535G, E617K, D791V counted along it

Structure (SMILES): CCc1cc(NC(=O)Nc2ccc(-c3cnc(Nc4cc(N5CCN(CC)CC5)ncn4)s3)cc2)no1
- GI50 [1]: 14600 nM
- IC50 [2]: 9.27 nM
- IC50 [3]: 102 nM
- inhibition [4]: 99%
- clearance [5]: 20.2 mL/min/kg
- inhibition [6]: 94%
- inhibition [7]: 99%
- IC50 [8]: 1.37 nM
- inhibition [9]: 95%
- inhibition [10]: Active
- inhibition [11]: 100%
- inhibition [12]: 43%
- inhibition [13]: 10%
- inhibition [14]: Active
- IC50 [15]: 0.12 nM
- inhibition [16]: 73%
- TGI [17]: Active
- Activity [18]: 59%
- inhibition in vivo at 20 mg/kg [19]: 85%
- inhibition [20]: 100%
- GI50 [21]: > 100 nM
- IC50 [22]: 82 nM
- AUC at 24 h [23]: 2800 ng·h/mL
- GI50 [24]: 2.2 nM
- IC50 [25]: 92 nM
- inhibition [26]: 63%
